Source: patent US6344478B2, “Use of cloprostenol and fluprostenol analogues to treat glaucoma and ocular hypertension” (Alcon Manufacturing, Ltd., priority 1993, dated 2002)

Tests used:
[1] = system: pupil diameter of cats; experiment: Cat pupil diameter response (pupillary constriction in the cat); assay type: in vivo; conditions: for ED5 (equivalent response dose, from Area1-5 of pupil diameter versus time curve): area under pupil diameter vs time curve 1-5 hours, estimated from dose response relationship
Method: PGF2α analogues are known to contract the iris sphincter of cats and this assay is a generally accepted reference for activity.
Compounds of the present invention were therefore screened for pupillary constriction in the cat. The response is quantitated as Area1-5 values (area under the pupil diameter versus time curve from 1-5 hours), and the equivalent response dose (ED5) is estimated from its dose response relationship.

[2] = Systemic blood pressure, heart rate and blood pH/gas analysis in the rabbit ONH blood flow study; assay type: in vivo, Dutch-Belted rabbits; conditions: 0.004% topical q.d. 7 days
Method: (§1) Purpose: A two-way crossover study design was used to compare the effects of Compound 1B (0.004%), topically applied, and dosing vehicle on microvascular optic nerve head blood flow, blood pressure, heart rate, and acid-base balance in fifteen acepromazine-tranquilized Dutch-Belted rabbits. Methods: Baseline measurements were taken before treatment and after drug-free washout periods of 14 days. Microvascular optic nerve head (ONH) blood flow was measured with a fundus camera-based Laser Doppler flowmeter (LDf). Thirty microliters o a 0.004% solution of Compound 1B or vehicle was administered in left eyes only q.d. for 7 days. Experimental measurements were made 2 hours after the topical dose was administered on day 8. A sterile 23 gauge intracatheter was inserted into the central ear artery to monitor blood pressure and to take blood samples for blood pH/gas analysis.

[3] = system: microvascular optic nerve head (ONH) blood flow; experiment: Optic nerve head blood flow after one-week topical treatment in the rabbit (Laser Doppler flowmeter); assay type: in vivo, Dutch-Belted rabbits
Method: as §1

[4] = system: IOP in cynomolgus monkey eyes; experiment: Monkey IOP response in lasered (ocular hypertensive) cynomolgus monkey eyes; assay type: in vivo; conditions: lasered right eyes of cynomolgus monkeys; five-dose regimen; estimated from dose response relationship
Method: In the study presented below, compound 6 (Table 2, above) was tested for IOP-lowering effect in cynomolgus monkey eyes.
The right eyes of the cynomolgus monkeys used in this study were previously given laser trabeculoplasty to induce ocular hypertension in the lasered eye. Animals had been trained to sit in restraint chairs and conditioned to accept experimental procedures without chemical restraint. IOP was determined with a pneumatonometer after light corneal anesthesia with dilute proparacaine. The test protocol included a five-dose treatment regimen because of the typical delayed response to prostaglandins. The designated test formulations were administered to the lasered right eyes, and the normal left eyes remained untreated, although IOP measurements were taken. Baseline IOP values were determined prior to treatment with the test formulation, and then IOP was determined from 1 to 7 hours after the first dose, 16 hours after the fourth dose, and 1 to 4 hours after the fifth dose.
The equivalent response dose (ED20) is estimated from the dose response relationship to be the dose producing a 20% peak reduction in IOP.

Q: With CC(C)OC(=O)CCC/C=C\C[C@@H]1[C@@H](/C=C/[C@@H](O)COc2cccc(Cl)c2)[C@H](O)C[C@@H]1O [Compound 1A, Cloprostenol, isopropyl ester] as the compound, how does the “ED5 (equivalent response dose, from Area1-5 of pupil diameter versus time curve)” value [1] read?
A: Its value is 0.01 µg.

Q: With CC(C)OC(=O)CCC/C=C\C[C@H]1C(O)CC(O)[C@@H]1/C=C/C(O)COc1cccc(C(F)(F)F)c1 (stereo partly shown) [Compound 1B, Fluprostenol, isopropyl ester] as the compound, how does the “changes in systemic blood pressure, heart rate, blood gas tensions and pH compared with the vehicle group” value [2] read?
A: The value was “small non-significant changes”.

Q: What about the “mean percent decrease in arterial pCO2 tension” value [2] of the same compound?
A: Its value is 2.59±2.5%.

Q: What about the “mean percent decrease in arterial pO2 tension” value [2] of the same compound?
A: The value was 1.44±2.03%.

Q: What about the “mean percent decrease in systemic arterial pH” value [2] of the same compound?
A: Its value is 0.07±0.09%.

Q: What about the “ONH blood flow, mean±SEM percent increase from baseline” value ([3]; 0.004% solution, 30 microliters topical q.d. 7 days, measured 2 hours after dose on day 8, acepromazine-tranquilized rabbits) of the same compound?
A: Its value is 13.4±3.9%.

Q: And the “ONH blood flow compared to the vehicle treated group” value ([3]; 0.004% topical q.d., p<0.05)?
A: Its value is “significantly increased”.

Q: Which “ED5 (equivalent response dose, from Area1-5 of pupil diameter versus time curve)” value [1] does the source give for CC(C)OC(=O)CCC/C=C\CC1C(CC[C@@H](O)COc2cccc(C(F)(F)F)c2)[C@H](O)C[C@@H]1O (stereo partly drawn) [Compound 6, (5Z)-(9S, 11R, 15R)-17,18,19,20-Tetranor-16-(3-trifluoromethylphenoxy)-9,11,15-trihydroxy-5-prostenoic Acid Isopropyl Ester] here?
A: Its value is 0.2 µg.

Q: And the “ED20 (dose producing a 20% peak reduction in IOP)” value [4]?
A: Its value is 0.3 µg.

Q: For CC(C)(C)C(=O)OCCCC/C=C\C[C@@H]1[C@@H](CC[C@@H](O)COc2cccc(Cl)c2)[C@H](O)C[C@@H]1O [Compound 8, (5Z)-(9S, 11R, 15R)-16-(3-Chlorophenoxy)-17,18,19,20-tetranor-9,11,15-trihydroxy-5-prostenol Pivaloate], which “ED5 (equivalent response dose, from Area1-5 of pupil diameter versus time curve)” value [1] is on record?
A: The value was 0.06 µg.

Q: And the “potency in cat pupil diameter response compared with the standard compounds” value ([1]; versus PGF2α isopropyl ester and cloprostenol isopropyl ester)?
A: Its value is “nearly equivalent potency”.

Q: Which “ED5 (equivalent response dose, from Area1-5 of pupil diameter versus time curve)” value [1] does the source give for CCCCC[C@H](O)/C=C/[C@@H]1[C@@H](C/C=C\CCCC(=O)OC(C)C)[C@@H](O)C[C@H]1O [PGF2α Isopropyl Ester, reference compound] here?
A: The value was 0.02 µg.

Q: And the “ED20 (dose producing a 20% peak reduction in IOP)” value [4]?
A: Its value is 0.4 µg.
